Usually Ki stands for a dissociation constant, usually derived from enzyme kinetics or from competition with a known ligand.

Our source for the Ki values is patent US8829011B2 (Janssen Pharmaceutica NV, priority 2008, dated 2014).

Molecules are shown by their SMILES. Where a name gives a salt, the structure may show the parent alone.

The target of one test is T1, rat 5-HT7a receptor (Rattus norvegicus, UniProt P32305).
T1 construct: expressed in transfected cells; host or cells: HEK-293
The test is described as follows: Affinity for 5-HT7 receptor binding sites (competition radioligand binding, [3H]5-CT). The settings on record: membranes of HEK-293 cells with rat 5-HT7a; 1 nM [3H]5-CT; * = tested as hydrochloride salt. How it is done: (§1) Stock drug solutions (10 mM) were prepared in DMSO (the final assay concentration of DMSO not exceeding 0.4%). Drug dilutions were prepared in assay buffer.
(§2) Sigmoidal inhibition curves were generated and fitted by nonlinear regression analysis (GraphPad Prism).
1. Affinity for 5-HT7 Receptor Binding Sites
The affinity of the compounds described in this invention for the 5-HT7 receptor binding site was evaluated by single competition radioligand binding assay. The assay was performed on membranes prepared from HEK-293 cells that had been subjected to stable transfection with the rat 5-HT7a receptor (GB: NM022938). Cells were scraped from the culture plates, suspended in Tris-HCl 50 mM pH 7.5 and collected through centrifugation (1000 rpm for 5 min). The cell pellets were homogenized (Polytron, 15 s, setting 5) in 50 mM Tris-HCl (pH 7.5), 5 mM EDTA. Following centrifugation (15,000 rpm for 25 min), membranes (135 μg protein/mL) were resuspended in the same buffer and incubated for 60 min at RT with 1 nM [^3H]5-CT in the presence of increasing concentration of test compounds. Nonspecific binding was defined in the presence of 10 μM 5-HT. Incubation was stopped by rapid filtration using the cell harvester (Packard). Radioactivity was counted in a TopCount-NXT (Packard). Experiments were conducted in triplicate.

Test [1] addresses T2, human recombinant 5-HT2B receptor (Homo sapiens, UniProt P41595).
T2 construct: expressed in transfected cells; host or cells: CHO
As to the kind of experiment: Affinity for 5-HT2B receptor binding sites (competitive radioligand binding, [3H]mesulergine). The settings on record: membranes of CHO with h5-HT2B, * = tested as hydrochloride salt. How it is done:
as §1, §2
(§3) 2. Affinity for 5HT2 Receptor Binding Sites
(§4) Receptor binding was performed using the human recombinant 5-HT2A (GB: X57830), 5-HT2B (GB: Z36748) and 5-HT2C (GB: M81778) receptors. The affinity of the compounds for the 3 different human 5-HT2 receptor subtypes was evaluated by competitive radioligand binding assays using [^3H]ketanserin (h5-HT2A) or [^3H]mesulergine (h5-HT2B and h5-HT2C). The assays were performed on membranes prepared from NIH3T3 stably transfected with h5-HT2A or CHO stably transfected with h5-HT2B and h5-HT2C.

The target of test [2] is T3, human recombinant 5-HT2A receptor (Homo sapiens, UniProt P28223).
T3 construct: expressed in transfected cells; host or cells: NIH3T3
T3 sequence (P28223 whole entry): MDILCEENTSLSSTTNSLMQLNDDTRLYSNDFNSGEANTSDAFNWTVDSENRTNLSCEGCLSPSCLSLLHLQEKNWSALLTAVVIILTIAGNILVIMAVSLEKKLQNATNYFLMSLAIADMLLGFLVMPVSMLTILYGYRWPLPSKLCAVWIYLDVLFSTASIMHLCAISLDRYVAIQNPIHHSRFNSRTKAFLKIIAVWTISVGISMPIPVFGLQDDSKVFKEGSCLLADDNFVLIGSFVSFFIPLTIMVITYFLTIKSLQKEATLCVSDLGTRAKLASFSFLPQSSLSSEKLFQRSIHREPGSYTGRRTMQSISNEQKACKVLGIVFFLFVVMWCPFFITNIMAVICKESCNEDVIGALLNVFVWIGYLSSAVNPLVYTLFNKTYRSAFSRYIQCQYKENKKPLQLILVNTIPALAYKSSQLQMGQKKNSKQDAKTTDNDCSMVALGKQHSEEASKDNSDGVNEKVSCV
As to the kind of experiment: Affinity for 5-HT2A receptor binding sites (competitive radioligand binding, [3H]ketanserin). The settings on record: membranes of NIH3T3 with h5-HT2A, * = tested as hydrochloride salt. How it is done: as §1, §2, §3, §4

The target in test [3] is T4, human recombinant 5-HT2C receptor (Homo sapiens, UniProt P28335).
T4 construct: expressed in transfected cells; host or cells: CHO
T4 sequence (P28335 33-458): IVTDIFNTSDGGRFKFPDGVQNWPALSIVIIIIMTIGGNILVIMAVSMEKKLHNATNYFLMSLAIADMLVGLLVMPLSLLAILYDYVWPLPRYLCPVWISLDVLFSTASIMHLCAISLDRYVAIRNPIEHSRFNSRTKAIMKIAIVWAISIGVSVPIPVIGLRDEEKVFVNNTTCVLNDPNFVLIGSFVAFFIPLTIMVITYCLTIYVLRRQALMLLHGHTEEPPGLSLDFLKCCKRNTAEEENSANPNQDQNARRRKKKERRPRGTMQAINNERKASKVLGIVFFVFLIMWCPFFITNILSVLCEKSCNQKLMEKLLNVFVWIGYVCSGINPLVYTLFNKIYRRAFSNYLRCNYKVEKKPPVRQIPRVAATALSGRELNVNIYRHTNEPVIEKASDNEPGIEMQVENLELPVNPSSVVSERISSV
The test is described as follows: Affinity for 5-HT2C receptor binding sites (competitive radioligand binding, [3H]mesulergine). The settings on record: membranes of CHO with h5-HT2C, * = tested as hydrochloride salt. On the procedure:
as §1, §2, §3, §4

Test [4] concerns the target T5, human recombinant 5-HT6 receptor (Homo sapiens, UniProt P50406).
T5 construct: expressed in transfected cells; host or cells: HEK-293
As to the kind of experiment: Affinity for 5-HT6 receptor binding sites (competitive radioligand binding, [3H]LSD). The settings on record: membranes of HEK-293 with h5-HT6, * = tested as hydrochloride salt. On the procedure:
as §1, §2
3. Affinity for 5-HT6 Receptor Binding Sites
Receptor binding was performed using the human recombinant 5-HT6 (GB: BC0794995) receptor. The affinity of the compounds for the human 5-HT6 receptor was evaluated by competitive radioligand binding assays using [^3H]LSD. The assays were performed on membranes prepared from HEK-293 stably transfected with h5-HT6. Non-specific binding was estimated in the presence of 1 μM clozapine.

T5 sequence (P50406 whole entry): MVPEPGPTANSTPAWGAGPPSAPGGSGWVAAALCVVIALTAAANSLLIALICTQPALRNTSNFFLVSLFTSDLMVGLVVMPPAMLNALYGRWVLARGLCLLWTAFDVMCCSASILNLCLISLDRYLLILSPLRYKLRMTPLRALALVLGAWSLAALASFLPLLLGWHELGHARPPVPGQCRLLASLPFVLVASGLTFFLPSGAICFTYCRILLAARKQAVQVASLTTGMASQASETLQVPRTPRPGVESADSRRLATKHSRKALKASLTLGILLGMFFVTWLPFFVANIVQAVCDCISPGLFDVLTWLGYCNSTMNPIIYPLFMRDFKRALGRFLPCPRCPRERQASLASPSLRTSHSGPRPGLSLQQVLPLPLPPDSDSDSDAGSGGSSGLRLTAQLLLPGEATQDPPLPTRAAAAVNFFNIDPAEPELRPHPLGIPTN
T2 sequence (P41595 whole entry): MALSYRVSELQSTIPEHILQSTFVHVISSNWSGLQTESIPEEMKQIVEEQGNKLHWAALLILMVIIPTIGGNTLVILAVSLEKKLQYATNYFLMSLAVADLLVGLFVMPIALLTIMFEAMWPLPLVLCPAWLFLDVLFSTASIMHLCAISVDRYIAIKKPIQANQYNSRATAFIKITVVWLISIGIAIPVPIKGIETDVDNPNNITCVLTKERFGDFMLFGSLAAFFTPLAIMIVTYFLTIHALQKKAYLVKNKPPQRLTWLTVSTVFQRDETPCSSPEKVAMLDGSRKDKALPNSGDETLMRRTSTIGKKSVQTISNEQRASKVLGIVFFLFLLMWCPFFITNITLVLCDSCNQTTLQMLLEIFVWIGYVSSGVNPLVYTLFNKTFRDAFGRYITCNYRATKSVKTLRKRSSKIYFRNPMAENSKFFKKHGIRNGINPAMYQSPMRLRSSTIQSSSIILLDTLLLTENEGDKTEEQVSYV
T1 sequence (P32305 whole entry): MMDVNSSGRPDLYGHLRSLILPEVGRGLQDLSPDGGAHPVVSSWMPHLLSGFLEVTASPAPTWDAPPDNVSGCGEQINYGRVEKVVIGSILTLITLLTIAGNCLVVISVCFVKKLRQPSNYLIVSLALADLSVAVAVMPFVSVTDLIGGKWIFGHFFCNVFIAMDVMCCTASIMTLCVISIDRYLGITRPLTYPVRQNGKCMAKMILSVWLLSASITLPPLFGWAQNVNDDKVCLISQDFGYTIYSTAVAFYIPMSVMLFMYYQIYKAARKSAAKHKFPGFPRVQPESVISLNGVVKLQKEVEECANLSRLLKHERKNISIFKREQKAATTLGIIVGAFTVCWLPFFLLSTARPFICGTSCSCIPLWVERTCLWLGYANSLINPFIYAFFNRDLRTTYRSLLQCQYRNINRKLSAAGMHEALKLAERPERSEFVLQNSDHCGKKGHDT

As for `CCN(CC)c1nc2c(c(-c3ccc(F)cc3)n1)CNCCC2` [Example 15, Diethyl-[4-(4-fluoro-phenyl)-6,7,8,9-tetrahydro-5H-1,3,6-triaza-benzocyclohepten-2-yl]-amine], on rat 5-HT7a receptor, the Ki is greater than 10000 nM.
On to `CCN(CC)c1nc2c(c(-c3ccc(C)cc3)n1)CNCCC2` [Example 16, Diethyl-(4-p-tolyl-6,7,8,9-tetrahydro-5H-1,3,6-triaza-benzocyclohepten-2-yl)-amine], for which the Ki was found to be 320 nM in test [1], 500 nM at rat 5-HT7a receptor, 50 nM in test [2] and 630 nM in test [3].
Regarding `CCN(CC)c1nc2c(c(-c3ccc(OC)cc3)n1)CNCCC2` [Example 17, Diethyl-[4-(4-methoxy-phenyl)-6,7,8,9-tetrahydro-5H-1,3,6-triaza-benzocyclohepten-2-yl]-amine], the inhibition constant (Ki) is 630 nM in test [1], greater than 10000 nM on rat 5-HT7a receptor, 900 nM in test [2] and 2500 nM in test [3].
`CCN(CC)c1nc2c(c(-c3ccc(C#N)cc3)n1)CNCCC2` [Example 18, 4-(2-Diethylamino-6,7,8,9-tetrahydro-5H-1,3,6-triaza-benzocyclohepten-4-yl)-benzonitrile]: the Ki at rat 5-HT7a receptor is greater than 10000 nM.
`Cc1ccc(-c2nc(N3CCCCC3)nc3c2CNCCC3)cc1` [Example 19, 2-Piperidin-1-yl-4-p-tolyl-6,7,8,9-tetrahydro-5H-1,3,6-triaza-benzocycloheptene]: the inhibition constant (Ki) in test [1] is 1000 nM; on rat 5-HT7a receptor it was greater than 10000 nM; in test [2] it was 1500 nM; in test [3], 3160 nM.
Turning to `Fc1ccc(-c2nc(N3CCCCC3)nc3c2CNCCC3)cc1` [Example 20, 4-(4-Fluoro-phenyl)-2-piperidin-1-yl-6,7,8,9-tetrahydro-5H-1,3,6-triaza-benzocycloheptene hydrochloride], the inhibition constant (Ki) in test [1] is 790 nM; on rat 5-HT7a receptor it was greater than 10000 nM; in test [2], 300 nM; in test [3], 6310 nM.
`COc1ccc(-c2nc(N3CCCCC3)nc3c2CNCCC3)cc1` [Example 21, 4-(4-Methoxy-phenyl)-2-piperidin-1-yl-6,7,8,9-tetrahydro-5H-1,3,6-triaza-benzocycloheptene hydrochloride]: the inhibition constant (Ki) on rat 5-HT7a receptor was greater than 10000 nM.
With `N#Cc1ccc(-c2nc(N3CCCCC3)nc3c2CNCCC3)cc1` [Example 22, 4-(2-Piperidin-1-yl-6,7,8,9-tetrahydro-5H-1,3,6-triaza-benzocyclohepten-4-yl)-benzonitrile hydrochloride], the inhibitory constant (Ki) in test [1] is 2510 nM; at rat 5-HT7a receptor, greater than 10000 nM; in test [2] it was greater than 10000 nM; in test [3] it was greater than 10000 nM.
`CCN(CC)c1nc2c(c(-c3ccc(F)cc3)n1)CCN(Cc1ccccc1)C2` [Example 23, [7-Benzyl-4-(4-fluoro-phenyl)-5,6,7,8-tetrahydro-pyrido[3,4-d]pyrimidin-2-yl]-diethyl-amine]: the inhibition constant Ki came out at 350 nM in test [1], 620 nM at rat 5-HT7a receptor, 60 nM in test [2] and 2800 nM in test [3].
Turning to `CCN(CC)c1nc2c(c(-c3ccc(C)cc3)n1)CCN(Cc1ccccc1)C2` [Example 25, (7-Benzyl-4-p-tolyl-5,6,7,8-tetrahydro-pyrido[3,4-d]pyrimidin-2-yl)-diethyl-amine], the inhibitory constant (Ki) in test [1] was 620 nM; on rat 5-HT7a receptor it was greater than 10000 nM; in test [2] it was 190 nM; in test [3] it was greater than 10000 nM.
As to `CCN(CC)c1nc2c(c(-c3ccc(OC)cc3)n1)CCN(Cc1ccccc1)C2` [Example 27, [7-Benzyl-4-(4-methoxy-phenyl)-5,6,7,8-tetrahydro-pyrido[3,4-d]pyrimidin-2-yl]-diethyl-amine], the Ki in test [1] was 660 nM; at rat 5-HT7a receptor, greater than 10000 nM; in test [2] it was 1700 nM; in test [3], greater than 10000 nM.
With `CCN(CC)c1nc2c(c(-c3ccc(C#N)cc3)n1)CCN(Cc1ccccc1)C2` [Example 29, 4-(7-Benzyl-2-diethylamino-5,6,7,8-tetrahydro-pyrido[3,4-d]pyrimidin-4-yl)-benzonitrile], the Ki in test [1] was 1100 nM; on rat 5-HT7a receptor, greater than 10000 nM; in test [2], 650 nM; in test [3], greater than 10000 nM.
For the molecule `Fc1ccc(-c2nc(N3CCCCCC3)nc3c2CCN(Cc2ccccc2)C3)cc1` [Example 31, 2-Azepan-1-yl-7-benzyl-4-(4-fluoro-phenyl)-5,6,7,8-tetrahydro-pyrido[3,4-d]pyrimidine], the inhibitory constant (Ki) in test [1] was 1600 nM; at rat 5-HT7a receptor, greater than 10000 nM; in test [2], 230 nM; in test [3] it was 3200 nM.
As to `Fc1ccc(-c2nc(N3CCCCCC3)nc3c2CCNC3)cc1` [Example 32, 2-Azepan-1-yl-4-(4-fluoro-phenyl)-5,6,7,8-tetrahydro-pyrido[3,4-d]pyrimidine], the Ki in test [1] came to 30 nM; on rat 5-HT7a receptor, 270 nM; in test [2] it was 9 nM; in test [3], 110 nM.
On to `Cc1ccc(-c2nc(N3CCCCCC3)nc3c2CCN(Cc2ccccc2)C3)cc1` [Example 33, 2-Azepan-1-yl-7-benzyl-4-p-tolyl-5,6,7,8-tetrahydro-pyrido[3,4-d]pyrimidine], for which the inhibition constant Ki in test [1] is 800 nM; at rat 5-HT7a receptor, greater than 10000 nM; in test [2], 540 nM; in test [3] it was 3200 nM.
Turning to `Cc1ccc(-c2nc(N3CCCCCC3)nc3c2CCNC3)cc1` [Example 34, 2-Azepan-1-yl-4-p-tolyl-5,6,7,8-tetrahydro-pyrido[3,4-d]pyrimidine], the Ki in test [1] worked out at 40 nM; at rat 5-HT7a receptor it was 90 nM; in test [2], 18 nM; in test [3], 270 nM.
On to `COc1ccc(-c2nc(N3CCCCCC3)nc3c2CCN(Cc2ccccc2)C3)cc1` [Example 35, 2-Azepan-1-yl-7-benzyl-4-(4-methoxy-phenyl)-5,6,7,8-tetrahydro-pyrido[3,4-d]pyrimidine], for which the inhibition constant (Ki) was 700 nM in test [1], greater than 10000 nM at rat 5-HT7a receptor, greater than 10000 nM in test [2] and greater than 10000 nM in test [3].
For the molecule `COc1ccc(-c2nc(N3CCCCCC3)nc3c2CCNC3)cc1` [Example 36, 2-Azepan-1-yl-4-(4-methoxy-phenyl)-5,6,7,8-tetrahydro-pyrido[3,4-d]pyrimidine], the Ki in test [1] is 100 nM; at rat 5-HT7a receptor it was 210 nM; in test [2], 160 nM; in test [3] it was 320 nM.
With `C[C@H]1COCCN1c1nc2c(c(-c3cc4ccccc4o3)n1)CCNCC2` [Example 98, 4-(2-benzofuranyl)-6,7,8,9-tetrahydro-2-[(3S)-3-methyl-4-morpholinyl]-5H-pyrimido[4,5-d]azepine], the inhibitory constant (Ki) in test [1] was determined as 25 nM; in test [2], 99 nM; in test [3] it was 140 nM; in test [4] it was 13 nM.
In the case of `C[C@@H]1COCCN1c1nc2c(c(-c3cnc4ccccc4c3)n1)CCNCC2` [Example 99, 6,7,8,9-tetrahydro-2-[(3R)-3-methyl-4-morpholinyl]-4-(3-quinolinyl)-5H-pyrimido[4,5-d]azepine], the Ki was determined as 280 nM in test [1], 1440 nM in test [2], 490 nM in test [3] and 30 nM in test [4].
Take `Cc1ccc(-c2nc(N3CCOC[C@H]3C)nc3c2CCNCC3)cc1` [Example 100, 6,7,8,9-tetrahydro-2-[(3R)-3-methyl-4-morpholinyl]-4-(4-methylphenyl)-5H-pyrimido[4,5-d]azepine]: the Ki is 8 nM in test [1], 21 nM in test [2], 4 nM in test [3] and 6 nM in test [4].
